Experimental data: paper PMC1968247 (British Journal of Cancer, 1993)
Read-outs that look alike come from different tables or passages of the source.

Experiments:
[1] = system: MAC 15A ascites tumour; test: Anti-tumour activity against MAC 15A (median survival time); type: in vivo, NMRI mice; conditions: 30 mg kg-1 ip
Protocol: (§1) Br. J. Cancer (1993), 67, 441 446 t? […] Bibby Clinical Oncology Unit, University of Bradford, West Yorkshire, BD7 JDP, UK. […] In vivo anti-tumour activity was examined against three transplantable adenocarcinomas of the mouse colon and in vivo bone marrow toxicity was assessed using a spleen colony forming unit assay. The pharmacokinetic behaviour of the drug in vivo and drug stability in vitro was analysed by gas chromatography with electron capture detection. […] Clinical responses to cytotoxic agents have been largely restricted to the haematological malignancies while the majority of human solid tumours have remained refractory to chemotherapy (Marsoni et al., 1987). […] However, their clinical usefulness has been limited by non-selective host toxicity, particularly myelosuppres- sion. The chloroethylnitrosoureas decompose spontaneously in aqueous solution to generate reactive intermediates that are capable of alkylating and carbamoylating nucleophilic targets (Cheng et al., 1972). Alkylation reactions consist of chloroethylations and hydroxyethylations of DNA (Tong et al., 1982). Chloroethylation of 06-guanine with subsequent cross-link formation is considered to be the most important cytotoxic reaction (Lown et al., 1978) while hydroxyethyla- tion reactions are thought to be responsible for their mutagenic and carcinogenic effects (Pelfrene et al., 1976; Swenson et al., 1979). […] In the search for other types of compound that would chloroethylate DNA, a series of 2-haloethylsulphonates was synthesised (Shealy et al., 1983). […] Recently, the NCI has introduced a new disease-orientated screening programme based on the assessment of the in vitro cytotoxicity of a panel of cell lines representing the common clinical forms of human cancers using a colorimetric assay (Boyd, 1989). […] One reason for this discrepancy is that the in vitro tests ignore the potential role played by the pharmacokinetic behaviour and bioavailability of a drug in determining tumour responses in vivo. […] It has been used extensively as part of the pre-clinical evaluation of new anti-cancer agents within the Screening and Pharmacology Group of the EORTC (Bibby et al., 1988b). The feasibility of performing minimal toxicity studies in conjunction with anti-tumour studies has been described (Bibby et al., 1988b). […] Correspondence: A.M. Matthew. Received 6 December 1991; and in revised form 13 October 1992. Br. J. Cancer (1993), 67, 441-446 '?" Macmillan Press Ltd., 1993 442 A.M. MATIHEW et al. ethylating agents with improved therapeutic indices. The assessment of stem cell survival has been recommended to study irreversible cytotoxic bone marrow injury (Schofield, 1986) and this can be performed readily in mice using a spleen colony forming unit assay. […] In vitro activity was assessed against a panel of established murine and human tumour cell lines while in vivo anti-tumour responses were evaluated against an ascitic tumour, MAC 15A, and two solid subcutaneous (sc) tumours, MAC 13 and MAC 26. MAC 13 is relatively nitrosourea-sensitive due to a low level of the repair enzyme 06-alkylguanine-DNA alkyltransferase while MAC 26 is relatively nitrosourea-resistant due to a high repair enzyme level (Lunn et al., 1989). In vivo bone marrow toxicity and pharmacokinetic studies and in vitro drug stability studies were performed in conjunction with the anti-tumour studies. […] Chlorozotocin was dissolved in 10% dimethylsulphoxide (DMSO)/arachis oil. Drug solutions were prepared at an appropriate concentration for the desired in vivo dose to be administered in 0.1 ml per 10 g body weight by intra- peritoneal (ip) or intravenous (iv) injection and for the desired final concentration in vitro to be achieved upon a 1 in 10 dilution. […] Chemosensitivity testing In vitro chemosensitivity was assessed using a modified micro-tetrazolium (MTT) assay (Twenty- man & Luscombe, 1987).

[2] = system: MAC 13 tumours; test: Anti-tumour activity against MAC 13 (tumour weight); type: in vivo, NMRI mice; conditions: 30 mg kg-1 ip
Protocol: as §1

[3] = system: MAC 26 tumours; conditions: for Survivors: MAC 26 bearers
Protocol: as §1

[4] = system: bone marrow; conditions: 24 h
Protocol: as §1

[5] = Maximum tolerated dose, full dose range to the point of toxicity; conditions: ip, mice
Protocol: Br. J. Cancer (1993), 67, 441 446 t? […] Bibby Clinical Oncology Unit, University of Bradford, West Yorkshire, BD7 JDP, UK. […] In vivo anti-tumour activity was examined against three transplantable adenocarcinomas of the mouse colon and in vivo bone marrow toxicity was assessed using a spleen colony forming unit assay. The pharmacokinetic behaviour of the drug in vivo and drug stability in vitro was analysed by gas chromatography with electron capture detection. […] Clinical responses to cytotoxic agents have been largely restricted to the haematological malignancies while the majority of human solid tumours have remained refractory to chemotherapy (Marsoni et al., 1987). […] However, their clinical usefulness has been limited by non-selective host toxicity, particularly myelosuppres- sion. The chloroethylnitrosoureas decompose spontaneously in aqueous solution to generate reactive intermediates that are capable of alkylating and carbamoylating nucleophilic targets (Cheng et al., 1972). Alkylation reactions consist of chloroethylations and hydroxyethylations of DNA (Tong et al., 1982). Chloroethylation of 06-guanine with subsequent cross-link formation is considered to be the most important cytotoxic reaction (Lown et al., 1978) while hydroxyethyla- tion reactions are thought to be responsible for their mutagenic and carcinogenic effects (Pelfrene et al., 1976; Swenson et al., 1979). […] The assessment of stem cell survival has been recommended to study irreversible cytotoxic bone marrow injury (Schofield, 1986) and this can be performed readily in mice using a spleen colony forming unit assay. […] In vitro activity was assessed against a panel of established murine and human tumour cell lines while in vivo anti-tumour responses were evaluated against an ascitic tumour, MAC 15A, and two solid subcutaneous (sc) tumours, MAC 13 and MAC 26. […] Chemosensitivity testing In vitro chemosensitivity was assessed using a modified micro-tetrazolium (MTT) assay (Twenty- man & Luscombe, 1987).

CN(C)S(=O)(=O)CCNC(=O)N(CCCl)N=O [TCNU, 1-(2-chloroethyl)-3-[2-(dimethylaminosulphonyl)ethyl]-I -nitro-sourea]
T/C% [1]: 200%
% Tumour weight inhibition [2]: 91.3%
Tumour growth delay ([3]; MAC 26, 30 mg kg-1 ip): 11.6 days
Survivors ([3]; 30 mg kg-1 ip): 10/10
Survivors ([3]; 50 mg kg-1 ip): 0/5
Survival fraction ([4]; 5 mg kg-1 ip): 0.61
Survival fraction ([4]; 10 mg kg-1 ip): 0.20
Survival fraction ([4]; 30 mg kg-1 ip): 0
No. colonies observed ([4]; 30 mg kg-1 ip, mean, SD, n = 6): 0
Maximum tolerated dose [5]: 30 mg kg-'
